Data reported in US20090036422A1 (priority 2007, published 2009).
Structures can show the parent of a compound that is named as a salt.

target: T1, human orexin-2 (hOX2) receptor (Homo sapiens, UniProt O43614); test: Intracellular Ca2+ mobilization assay (FLIPR), CHO(dHFr-) cells expressing hOX2, orexin-A at EC80 as agonist; format: cell-based; conditions: Kb=IC50/(1+[A]/EC50); CHO(dHFr-)-OX2R cells, antagonist applied 25 min before orexin-A EC80
T1 construct: expressed in transfected cells
T1 sequence (O43614 1-444): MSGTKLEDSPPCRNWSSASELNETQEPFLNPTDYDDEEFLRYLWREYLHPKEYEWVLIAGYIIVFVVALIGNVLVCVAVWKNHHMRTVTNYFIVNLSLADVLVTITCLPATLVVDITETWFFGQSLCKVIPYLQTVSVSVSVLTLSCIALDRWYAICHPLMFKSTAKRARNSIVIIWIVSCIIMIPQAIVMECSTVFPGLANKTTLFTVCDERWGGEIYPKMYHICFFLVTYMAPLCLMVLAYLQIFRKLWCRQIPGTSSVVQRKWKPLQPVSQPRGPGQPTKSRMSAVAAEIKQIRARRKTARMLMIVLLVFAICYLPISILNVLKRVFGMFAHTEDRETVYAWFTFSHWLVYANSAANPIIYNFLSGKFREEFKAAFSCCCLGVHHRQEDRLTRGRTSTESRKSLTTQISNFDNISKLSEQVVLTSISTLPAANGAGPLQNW
Description: Intracellular Ca^2+ Mobilization Assay
The Chinese Hamster Ovary (dHFr−) mutant cell line stably expressing human orexin-1 (hOX1) or human orexin-2 (hOX2) receptors were maintained in Dulbecco's Modified Eagle Medium (1×) with GlutaMax™ 1, 4500 mg/L D-Glucose and Sodium Pyruvate (Catalog No. 31966-021, Invitrogen, Carlsbad, Calif.), 5% dialyzed fetal calf serum (Catalog No. 26400-044), 100 μg/ml penicillin and 100 μg/ml streptomycin. The cells were seeded at 5×10^4 cells/well in the poly-D-lysine treated, 96-well, black/clear-bottomed plates (Catalog No. BD356640, BD Biosciences, Palo Alto, Calif.). 24 h later, the cells were loaded for 1 h at 37° C. with 4 μM Flou-4 acetoxymethyl ester (Catalog No. F-14202, Molecular Probes, Eugene, Oreg.) in FLIPR buffer (1×HBSS, 20 mM HEPES, 2.5 mM Probenecid). Hanks' Balanced Salt Solution (HBSS) (10×) (catalog No. 14065-049) and HEPES (1M) (catalog No. 15630-056) were purchased from Invitrogen, Carlsbad, Calif. Probenecid (250 mM) (catalog No. P8761) was from Sigma, Buchs, Switzerland. The cells were washed five times with FLIPR buffer to remove excess dye and intracellular calcium mobilization, [Ca^2+]i were measured using a Fluorometric Imaging Plate Reader (FLIPR-96, Molecular Devices, Menlo Park, Calif.) as described previously (Malherbe et al., Mol. Pharmacol., 64, 823-832, 2003). Orexin A (catalog No. 1455, Toris Cookson Ltd, Bristol, UK) was used as agonist. Orexin A (50 mM stock solution in DMSO) was diluted in FLIPR buffer +0.1% BSA. The EC50 and EC80 values of orexin-A were measured daily from standard agonist concentration-response curves in CHO(dHFr−) —OX1R and —OX2R cell lines. All compounds were dissolved in 100% DMSO. Inhibition curves were determined by addition of 11 concentrations (0.0001-10 μM) of inhibitory compounds and using EC80 value of orexin-A as agonist (a concentration which gave 80% of max agonist response, determined daily). The antagonists were applied 25 min (incubation at 37° C.) before the application of the agonist. Responses were measured as peak increase in fluorescence minus basal, normalized to the maximal stimulatory effect induced by EC80 value of orexin-A or orexin-B. Inhibition curves were fitted according to the Hill equation: y=100/(1+(x/IC50)^nH), where nH=slope factor using Excel-fit 4 software (Microsoft).
Kb values were calculated according to the following equation Kb=IC50/(1+[A]/EC50) where A is the concentration of agonist added which is very close to agonist EC80 value, and IC50 and EC50 values were derived from the antagonist inhibition and orexin-A or B agonist curves, respectively.

Row | SMILES | Kb
1 | Cc1ccc(N(CCc2c(F)cc(C(F)(F)F)c(F)c2F)C(=O)[C@@H](N)c2ccccc2)cc1C [Example 202, (S)-2-Amino-N-(3,4-dimethyl-phenyl)-2-phenyl-N-[2-(2,3,6-trifluoro-4-trifluoromethyl-phenyl)-ethyl]-acetamide hydrochloride] | 0.0015 µM
2 | Cc1ccc(CCN(C(=O)C(NCCO)c2ccccc2)c2ccc(C)c(C)c2)cc1 (centres unmarked) [Example 106, N-(3,4-Dimethyl-phenyl)-2-(2-hydroxy-ethylamino)-2-phenyl-N-(2-p-tolyl-ethyl)-acetamide] | 0.0071 µM
3 | COc1ccc(CCN(C(=O)C(N)c2ccccc2)c2ccc(OC(F)(F)F)cc2)cc1OC (centres unmarked) [Example 78, 2-Amino-N-[2-(3,4-dimethoxy-phenyl)-ethyl]-2-phenyl-N-(4-trifluoromethoxy-phenyl)-acetamide] | 0.0444 µM
4 | Cc1ccc(CCN(C(=O)C(NC(CO)C(C)C)c2ccccc2)c2ccc(C)c(C)c2)cc1 (centres unmarked) [Example 123, N-(3,4-Dimethyl-phenyl)-2-(1-hydroxymethyl-2-methyl-propylamino)-2-phenyl-N-(2-p-tolyl-ethyl)-acetamide] | 0.0727 µM
5 | COCC(C)NC(C(=O)N(CCc1ccc(C)cc1)c1ccc(C)c(C)c1)c1ccccc1 (centres unmarked) [Example 120, N-(3,4-Dimethyl-phenyl)-2-(2-methoxy-1-methyl-ethylamino)-2-phenyl-N-(2-p-tolyl-ethyl)-acetamide] | 0.0446 µM
6 | Cc1ccc(N(CCc2ccc(OC(F)(F)F)cc2)C(=O)[C@@H](N)c2ccccc2)cc1C [Example 176, (S)-2-Amino-N-(3,4-dimethyl-phenyl)-2-phenyl-N-[2-(4-trifluoromethoxy-phenyl)-ethyl]-acetamide] | 0.0505 µM
7 | Cc1ccc(N(CCc2c(F)cc(C(F)(F)F)c(F)c2F)C(=O)/C(=N/O)c2ccccc2)cc1C [Example 211, N-(3,4-Dimethyl-phenyl)-2-[hydroxyimino]-2-phenyl-N-[2-(2,3,6-trifluoro-4-trifluoromethyl-phenyl)-ethyl]-acetamide] | 0.0222 µM
8 | Cc1ccc(N(CCc2ccc(C(F)(F)F)cc2)C(=O)[C@@H](O)c2ccc(F)cc2)cc1C [Example 161, (S)—N-(3,4-Dimethyl-phenyl)-2-(4-fluoro-phenyl)-2-hydroxy-N-[2-(4-trifluoromethyl-phenyl)-ethyl]-acetamide] | 0.0908 µM
9 | Cc1ccc(N(CCc2ccccc2C)C(=O)[C@@H](N)c2ccccc2)cc1C [Example 185, (S)-2-Amino-N-(3,4-dimethyl-phenyl)-2-phenyl-N-(2-o-tolyl-ethyl)-acetamide hydrochloride] | 0.0305 µM
10 | Cc1ccc(CCN(C(=O)C(N)c2ccccc2)c2ccc(C)c(C)c2)cc1 (centres unmarked) [Example 89, 2-Amino-N-(3,4-dimethyl-phenyl)-2-phenyl-N-(2-p-tolyl-ethyl)-acetamide] | 0.0241 µM
11 | Cc1cccc(CCN(C(=O)[C@@H](N)c2ccccc2)c2ccc(C)c(C)c2)c1 [Example 181, (S)-2-Amino-N-(3,4-dimethyl-phenyl)-2-phenyl-N-(2-m-tolyl-ethyl)-acetamide hydrochloride] | 0.0708 µM
12 | Cc1ccc(N(CCc2ccc(F)c(C(F)(F)F)c2)C(=O)[C@@H](N)c2ccccc2)cc1C [Example 187, (S)-2-Amino-N-(3,4-dimethyl-phenyl)-N-[2-(4-fluoro-3-trifluoromethyl-phenyl)-ethyl]-2-phenyl-acetamide hydrochloride] | 0.0327 µM
13 | Cc1ccc(N(CCc2ccc(F)c(F)c2)C(=O)C(N)c2ccsc2)cc1C (centres unmarked) [Example 216, 2-Amino-N-[2-(3,4-difluoro-phenyl)-ethyl]-N-(3,4-dimethyl-phenyl)-2-thiophen-3-yl-acetamide hydrochloride] | 0.0302 µM
14 | Cc1ccc(N(CCc2ccc(F)cc2)C(=O)[C@@H](N)c2ccccc2)cc1C [Example 175, (S)-2-Amino-N-(3,4-dimethyl-phenyl)-N-[2-(4-fluoro-phenyl)-ethyl]-2-phenyl-acetamide] | 0.0219 µM
15 | Cc1ccc(N(CCc2ccc(C(F)(F)F)c(F)c2F)C(=O)[C@@H](N)c2ccccc2)cc1C [Example 197, (S)-2-Amino-N-[2-(2,3-difluoro-4-trifluoromethyl-phenyl)-ethyl]-N-(3,4-dimethyl-phenyl)-2-phenyl-acetamide hydrochloride] | 0.0067 µM
16 | Cc1ccc(N(CCc2cc(Cl)ccc2Cl)C(=O)[C@@H](N)c2ccccc2)cc1C [Example 203, (S)-2-Amino-N-[2-(2,5-dichloro-phenyl)-ethyl]-N-(3,4-dimethyl-phenyl)-2-phenyl-acetamide hydrochloride] | 0.0996 µM
17 | Cc1ccc(CCN(C(=O)[C@@H](NC(=O)CN)c2ccccc2)c2ccc(C)c(C)c2)cc1 [Example 248, (S)-2-(2-Amino-acetylamino)-N-(3,4-dimethyl-phenyl)-2-phenyl-N-(2-p-tolyl-ethyl)-acetamide] | 0.0353 µM
18 | Cc1ccc(N(CCc2cccc(O)c2)C(=O)[C@@H](N)c2ccccc2)cc1C [Example 206, (S)-2-Amino-N-(3,4-dimethyl-phenyl)-N-[2-(3-hydroxy-phenyl)-ethyl]-2-phenyl-acetamide hydrochloride] | 0.0469 µM

Further lines, results first:

Row | Kb | SMILES
19 | 0.046 µM | COc1ccc(N(CCc2ccc(C(F)(F)F)cc2)C(=O)[C@H](N)c2ccccc2)cc1OC (single isomer, unassigned) [Example 174]
20 | 0.0133 µM | CN[C@H](C(=O)N(CCc1ccc(C(F)(F)F)cc1)c1ccc(OC)c(OC)c1)c1ccccc1OC [Example 101, (S)—N-(3,4-Dimethoxy-phenyl)-2-(2-methoxy-phenyl)-2-methylamino-N-[2-(4-trifluoromethyl-phenyl)-ethyl]-acetamide hydrochloride]
21 | 0.0383 µM | COc1ccc(N(CCc2ccc(C(F)(F)F)cc2)C(=O)C(N)c2ccccc2)cc1F (centres unmarked) [Example 64, 2-Amino-N-(3-fluoro-4-methoxy-phenyl)-2-phenyl-N-[2-(4-trifluoromethyl-phenyl)-ethyl]-acetamide]
22 | 0.0069 µM | COc1ccccc1C(N)C(=O)N(CCc1ccc(C(F)(F)F)cc1)c1ccc2c(c1)OC(F)(F)C(F)(F)O2 (centres unmarked) [Example 44, 2-Amino-2-(2-methoxy-phenyl)-N-(2,2,3,3-tetrafluoro-2,3-dihydro-benzo[1,4]dioxin-6-yl)-N-[2-(4-trifluoromethyl-phenyl)-ethyl]-acetamide]
23 | 0.0088 µM | COc1ccc(N(CCc2ccc(C(F)(F)F)cc2)C(=O)C(N)c2ccccc2OC)cc1OC (centres unmarked) [Example 35, 2-Amino-N-(3,4-dimethoxy-phenyl)-2-(2-methoxy-phenyl)-N-[2-(4-trifluoromethyl-phenyl)-ethyl]-acetamide]
24 | 0.0335 µM | Cc1ccc(N(CCc2ccc(C(F)(F)F)cc2)C(=O)[C@@H](N)c2ccccc2)cc1 [Example 146, (S)-2-Amino-2-phenyl-N-p-tolyl-N-[2-(4-trifluoromethyl-phenyl)-ethyl]-acetamide]
25 | 0.0834 µM | CCOC(C(=O)N(CCc1ccc(C(F)(F)F)cc1)c1ccc(C)c(C)c1)c1ccccc1 (racemic) [Example 221, (R,S)—N-(3,4-Dimethyl-phenyl)-2-ethoxy-2-phenyl-N-[2-(4-trifluoromethyl-phenyl)-ethyl]-acetamide]
26 | 0.0778 µM | N[C@H](C(=O)N(CCc1ccc(C(F)(F)F)cc1)c1ccc(OC(F)F)c(Cl)c1)c1ccc(F)cc1 [Example 163, (S)-2-Amino-N-(3-chloro-4-difluoromethoxy-phenyl)-2-(4-fluoro-phenyl)-N-[2-(4-trifluoromethyl-phenyl)-ethyl]-acetamide]
